# Laboratory results: patent US20260158043A1, “STEROID AS A MODULATOR OF GABAA RECEPTOR” (UMECRINE COGNITION AB, priority 2021, published 2026)
# “And” between values parts separate entries of the source, which are not always exact repeats. Equal entries are not always repeated. “Also recorded” adds a separate entry of the source.
# Tests used:
# [1] = target: T1, human α3β3γ2 GABAA receptor subtype (Homo sapiens, UniProt P18507+P28472+P34903); test: Patch-clamp (Dynaflow) of GABA-mediated current in HEK-293 cells expressing α3β3γ2L GABAA receptor; format: cell-based
# T1 construct: expressed in transfected cells
# T1 sequence (P34903 29-492): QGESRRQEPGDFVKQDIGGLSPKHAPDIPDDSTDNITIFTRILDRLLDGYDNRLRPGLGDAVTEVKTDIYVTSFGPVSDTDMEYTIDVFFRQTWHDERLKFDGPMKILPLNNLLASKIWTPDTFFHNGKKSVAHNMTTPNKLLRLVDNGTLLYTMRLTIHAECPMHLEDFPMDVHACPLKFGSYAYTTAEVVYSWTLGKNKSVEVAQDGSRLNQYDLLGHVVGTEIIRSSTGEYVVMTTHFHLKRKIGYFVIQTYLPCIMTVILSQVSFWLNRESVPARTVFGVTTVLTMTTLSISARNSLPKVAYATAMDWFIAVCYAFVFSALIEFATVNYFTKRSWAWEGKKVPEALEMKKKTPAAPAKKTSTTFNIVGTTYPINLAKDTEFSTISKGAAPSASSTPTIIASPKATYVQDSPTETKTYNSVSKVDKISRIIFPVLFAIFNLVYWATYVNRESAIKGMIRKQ
# T1 sequence (P28472 26-473): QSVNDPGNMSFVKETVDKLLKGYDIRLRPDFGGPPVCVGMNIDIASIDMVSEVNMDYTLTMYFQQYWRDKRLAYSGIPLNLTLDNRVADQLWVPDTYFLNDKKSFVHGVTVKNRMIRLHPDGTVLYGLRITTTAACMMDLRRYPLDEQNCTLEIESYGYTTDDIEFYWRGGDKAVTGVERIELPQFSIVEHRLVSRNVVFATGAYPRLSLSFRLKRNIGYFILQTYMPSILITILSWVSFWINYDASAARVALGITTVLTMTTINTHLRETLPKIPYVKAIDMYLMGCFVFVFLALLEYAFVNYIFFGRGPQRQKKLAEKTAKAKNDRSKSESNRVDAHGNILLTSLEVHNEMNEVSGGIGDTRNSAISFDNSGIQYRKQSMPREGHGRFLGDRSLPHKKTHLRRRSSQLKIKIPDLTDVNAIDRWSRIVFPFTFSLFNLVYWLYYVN
# T1 sequence (P18507 40-475): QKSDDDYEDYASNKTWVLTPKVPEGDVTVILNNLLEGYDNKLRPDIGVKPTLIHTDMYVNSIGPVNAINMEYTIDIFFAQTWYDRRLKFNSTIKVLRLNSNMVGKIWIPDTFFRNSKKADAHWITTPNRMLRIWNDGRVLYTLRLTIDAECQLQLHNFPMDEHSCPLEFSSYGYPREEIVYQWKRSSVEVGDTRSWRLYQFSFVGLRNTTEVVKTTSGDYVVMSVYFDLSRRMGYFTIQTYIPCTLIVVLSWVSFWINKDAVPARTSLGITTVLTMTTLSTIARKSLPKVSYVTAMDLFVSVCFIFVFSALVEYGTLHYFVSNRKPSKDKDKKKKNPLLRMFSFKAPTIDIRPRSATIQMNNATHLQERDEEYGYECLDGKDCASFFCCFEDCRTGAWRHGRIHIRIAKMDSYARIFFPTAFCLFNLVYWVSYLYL
# Excerpt: (§1) Aim: To investigate the effect of 3α-ethynyl-3β-hydroxy-5α-androstan-17-one on the GABAA receptor function both in absence and in presence of the GAMS tetrahydrodeoxycorticosterone (THDOC) by the Dynaflow™ system (Fluicell) on HEK-293 cells recombinantly expressing human α1β2γ2L GABAA receptor or human α3β3γ2 GABAA receptor subtype. In these tests the protocol was optimized to be similar to the physiological conditions in the synaptic cleft.
# (§2) Preparation of cell lines: Cell lines permanently expressing a functional human GABAA receptor was made as follows. The GABAA receptor subunits α1β2γ2L or α3β3γ2 including introduced Kozac sequences just before the start codons were subcloned into mammalian expression vectors comprising Geneticin, Hygromycin B, and Zeocin resistance, respectively. A HEK-293 cell line stably expressing the three GABAA receptor subunits (α1β2γ2L, α3β3γ2) separately for α1β2γ2L and α3β3γ2 subunit composition was produced by transfection of the subunits one at a time. The transfection was followed by selection with the appropriate antibiotics, cell separation with the use of subunit specific antibodies (β2 and γ2, Abcam, Upstate/Chemicon/Milipore, Sigma Aldrich), and production of single cell colonies. Produced cell lines were analysed with immunocytochemistry for the three GABAA receptor subunits, followed by selection of a suitable cell line showing for the GABAA receptor normal and good reactivity towards GABA and THDOC.
# (§3) HEK-293 cells (obtained from Pasteur Institute, Paris, France), permanently transfected with the human 1β2γ2L or α3β3γ2 GABAA receptor subtypes, were seeded at a density of 3×10^4/25 cm^2 in a culture flask. The transfected cells were used for patch-clamp experiments 3 days after seeding. When using the cells for patch-clamp experiments the cells were washed twice with oxygen-bubbled EC-solution (see below). About 5 mL EC was then added and the cells were kept in the incubator for about 15 minutes. After 15 minutes the cells came loose from the bottom of the flask and were separated by carefully sucking a couple of times with a Pasteur pipette.
# (§4) Dynaflow™ system with Resolve chips (Fluicell) was used for all patch-clamp experiments. The DF-16 Proll chips (Fluicell) used have non-sticky inserts for the wells. The channel width was 150 μm and the height 50 μm. The well volume was 280 μL. Run time at the […] is […]. The pump settings were as follow: Omnifix 2 mL syringe with inner diameter of 9.65 mm was used. The syringe pump flow rate for DF-16 Pro II chip was 26 μL/min.
# Steroids and GABA: GABA (Sigma Aldrich) was dissolved in EC-solution by ultrasound for about 40 minutes to the concentration of 10 mM in room temperature. All steroids were dissolved to the concentration of 6 mM in DMSO. The DMSO concentration was 0.1% in all end-solutions, including the wash solution (EC) and the solution with GABA alone. End-solutions are the solutions added into the wells of the chip.
# Electrophysioloqy: Patch electrodes were pulled from 1.5 mm O.D., 0.86 mm I.D. borosilicate capillary glass without filament. […] The intracellular solution consisted of (in mM): 140 Cs-gluconate, 3.0 NaCl, 1.2 MgCl2, 1.0 EGTA, 10 HEPES. pH was adjusted to 7.2 with CsOH. The extracellular (EC) solution used during recordings contained (in mM): 137 NaCl, 5.0 KCl, 1.0 CaCl2), 1.2 MgCl2, 10 HEPES, 10 glucose. pH was adjusted with NaOH to 7.4. All chemicals in the intracellular and extracellular solutions were obtained from Sigma-Aldrich. After compensating for the liquid junction potential, a steady holding potential of −17 mV was used in all experiments. In physiological conditions the HEK-293 has a resting potential at −40 mV and a low concentration of chloride ions inside the cell. By using the holding potential of −17 mV and the intracellular solution with low chloride ion concentration the chloride ions flux into the cell when the receptors are activated. […]
# [2] = target: T2, human α1β2γ2L GABAA receptor (Homo sapiens, UniProt P14867+P18507+P47870); test: Patch-clamp (Dynaflow) of GABA-mediated current in HEK-293 cells expressing α1β2γ2L GABAA receptor; format: cell-based
# T2 construct: expressed in transfected cells
# T2 sequence (P14867 28-456): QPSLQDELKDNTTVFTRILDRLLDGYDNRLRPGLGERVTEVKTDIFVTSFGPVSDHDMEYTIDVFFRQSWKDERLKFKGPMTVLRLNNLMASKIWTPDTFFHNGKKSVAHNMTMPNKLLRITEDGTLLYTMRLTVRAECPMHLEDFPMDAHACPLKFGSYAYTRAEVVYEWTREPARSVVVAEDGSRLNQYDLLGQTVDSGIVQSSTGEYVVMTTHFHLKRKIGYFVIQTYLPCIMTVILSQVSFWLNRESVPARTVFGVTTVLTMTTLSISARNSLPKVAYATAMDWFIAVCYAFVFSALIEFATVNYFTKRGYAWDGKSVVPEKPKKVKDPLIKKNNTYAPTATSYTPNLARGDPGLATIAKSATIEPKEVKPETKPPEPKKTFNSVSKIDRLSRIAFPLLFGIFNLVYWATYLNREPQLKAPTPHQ
# T2 sequence (P47870 25-512 limits assumed): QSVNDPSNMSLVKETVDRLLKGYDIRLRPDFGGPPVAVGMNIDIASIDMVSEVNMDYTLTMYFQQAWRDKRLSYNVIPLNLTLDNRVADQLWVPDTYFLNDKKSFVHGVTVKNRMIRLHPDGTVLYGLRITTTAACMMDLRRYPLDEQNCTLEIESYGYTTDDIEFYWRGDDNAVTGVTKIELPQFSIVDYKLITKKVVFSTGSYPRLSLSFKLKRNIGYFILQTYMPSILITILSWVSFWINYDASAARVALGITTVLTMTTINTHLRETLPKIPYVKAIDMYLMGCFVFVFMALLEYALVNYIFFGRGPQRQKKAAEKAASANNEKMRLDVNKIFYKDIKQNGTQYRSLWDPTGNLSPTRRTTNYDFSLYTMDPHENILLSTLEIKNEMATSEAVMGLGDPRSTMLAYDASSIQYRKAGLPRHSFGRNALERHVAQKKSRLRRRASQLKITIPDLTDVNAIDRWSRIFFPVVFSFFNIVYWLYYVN
# T2 sequence (P18507 40-475): as the sequence (P18507 40-475) above
# Excerpt: as §1, §2, §3, §4
# Steroids and GABA: GABA (Sigma Aldrich) was dissolved in EC-solution by ultrasound for about 40 minutes to the concentration of 10 mM in room temperature. All steroids were dissolved to the concentration of 6 mM in DMSO. […]
# [3] = Weight increase in growing male rats, experiment 2 (10 days s.c., with progesterone + estradiol); format: in vivo, Male Wistar rats; conditions: for Weight difference compared to vehicle (Mean±SE) / Weight difference versus E+P control rats (Mean±SE): 10 days, n=9
# Procedure: Animals: Male Wistar rats were kept in group cages, with three animals per cage, from delivery and throughout the period of experiments. The individual animals were marked so that they could be identified throughout the experiment duration. The animals weight an average of 152 g upon arrival. A reversed light dark (12:12 h) cycle was used with the dark period onset at 0600 hrs. Altogether fifty-six (56) rats were used in this study (experiment 1+2). The animals were delivered from the breeder Taconic (Denmark). The study protocol was approved by the Regional Ethics Committee of Umea University, Sweden.
# Feeding: Standard chow and water were available ad libitum. A reversed 12-h dark-light cycle with lights off at 10.00 am and lights on at 22.00 pm was used. For identification, the rats were marked with a permanent marker on the tail. To avoid the endogenous allopregnanolone fluctuations that are present in the oestrous cycle of female rats, male rats were chosen (Frye et al. 2000). The animals were allowed to acclimatize for at least 3 weeks before start of the experimental sessions. During this period, the rats were repeatedly handled and allowed habituation to the new environment and to all new procedures, to minimize stress during the experiments.
# After 14 days of triad housing, handling and injection training of the animals, the animals were treated for 5 days with IV injections in experiment 1 and 10 days with a daily subcutaneous injection of the assigned treatment in experiment 2 (Table 3 and 4). The injections were given at 08.00 every morning. The animals were weighed the day before onset of the treatment and at the last day of injection i.e. on the 5th or 10th day of treatment. Weight was taken at the time of the last injection. […] The results are shown in FIG. 2 (experiment 1) and FIG. 3 (experiment 2), respectively.
# GABAA receptor = conditions: taught in WO 09/142594, table 3; cited from earlier work
# [4] = target: T3, human α4β3δ GABAA receptor (Homo sapiens, UniProt O14764+P28472+P48169); test: Patch-clamp (Dynaflow) of GABA-mediated current at α4β3δ GABAA receptor; format: cell-based; conditions: agonist effect
# T3 construct: expressed in transfected cells
# T3 sequence (P48169 36-554): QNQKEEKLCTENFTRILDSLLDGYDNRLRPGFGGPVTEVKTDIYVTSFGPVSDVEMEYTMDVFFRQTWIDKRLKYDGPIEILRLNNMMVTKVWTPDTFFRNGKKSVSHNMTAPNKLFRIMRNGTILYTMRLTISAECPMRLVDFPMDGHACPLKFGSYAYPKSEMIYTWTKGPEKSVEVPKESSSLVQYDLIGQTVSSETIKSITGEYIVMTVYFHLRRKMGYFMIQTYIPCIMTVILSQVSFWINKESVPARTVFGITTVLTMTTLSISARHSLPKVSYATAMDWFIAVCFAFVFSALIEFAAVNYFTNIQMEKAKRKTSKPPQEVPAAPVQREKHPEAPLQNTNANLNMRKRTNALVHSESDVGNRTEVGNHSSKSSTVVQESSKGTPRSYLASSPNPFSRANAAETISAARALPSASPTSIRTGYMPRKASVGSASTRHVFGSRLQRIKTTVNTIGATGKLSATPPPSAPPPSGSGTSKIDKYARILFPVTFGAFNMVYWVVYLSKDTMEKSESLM
# T3 sequence (P28472 26-473): as the sequence (P28472 26-473) above
# T3 sequence (O14764 17-452 limits assumed): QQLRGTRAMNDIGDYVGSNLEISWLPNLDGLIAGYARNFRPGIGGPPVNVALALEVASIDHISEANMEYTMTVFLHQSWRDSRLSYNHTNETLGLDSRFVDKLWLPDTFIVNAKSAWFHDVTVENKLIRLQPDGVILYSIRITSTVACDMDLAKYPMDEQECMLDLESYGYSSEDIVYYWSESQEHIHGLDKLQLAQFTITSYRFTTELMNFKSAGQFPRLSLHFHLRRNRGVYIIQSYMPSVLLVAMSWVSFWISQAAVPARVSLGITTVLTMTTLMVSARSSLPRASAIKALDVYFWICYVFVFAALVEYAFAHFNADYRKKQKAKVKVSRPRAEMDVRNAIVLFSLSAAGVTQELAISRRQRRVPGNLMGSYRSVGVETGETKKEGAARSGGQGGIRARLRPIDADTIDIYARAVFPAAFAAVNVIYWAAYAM
# Excerpt: (§5) Aim: the aim of this project was to study the effect of 3α-ethynyl-3β-hydroxy-5α-androstan-17-one and the positive GABAA receptor modulator THDOC on GABA-mediated current response, at human α1β2γ2L, α2β3γ2S, α4β3δ and α5β3γ2L subunit GABAA receptors.
# (§6) Study design: The current response mediated by chloride ion flux through the GABAA receptors expressing the α1β2γ2L, α2β3γ2S, α3β3γ2L, α4β3δ and α5β3γ2L subunit was studied with the use of patch clamp technique combined with the Dynaflow™ application system and the Resolve chip. This provides rapid applications of and removal of substances. The material, protocol and methods were identical to the ones used in Examples 1 and 2. 1 μM 3α-ethynyl-3β-hydroxy-5α-androstan-17-one was studied on GABA mediated current response at α1β2γ2L, α2β3γ2S, α4β3δ and α5β3γ2L GABAA receptor subtypes (FIG. 4, Table 6). In addition, the effect of 1-1000 nM THDOC was studied on GABA mediated current response at the α1β2γ2L, α3β2γ2, and α5β3γ2L receptor subtypes (Table 8). The binding site of THDOC is in the […] region of the receptor. To achieve stable response, the cells were exposed to steroid (THDOC) in 20 seconds before GABA application.
# (§7) The amount GABA used depends on the receptor subtype intra or extra-synaptic type, α1β2γ2L=30 μM; α2β3γ2S=45 μM; α4β3δ=1 μM and α5β3γ2L=0.3 μM GABA.
# [5] = target: T4, human α5β3γ2L GABAA receptor (Homo sapiens, UniProt P18507+P28472+P31644); test: Patch-clamp (Dynaflow) of GABA-mediated current at α5β3γ2L GABAA receptor; format: cell-based
# T4 construct: expressed in transfected cells
# T4 sequence (P31644 32-462): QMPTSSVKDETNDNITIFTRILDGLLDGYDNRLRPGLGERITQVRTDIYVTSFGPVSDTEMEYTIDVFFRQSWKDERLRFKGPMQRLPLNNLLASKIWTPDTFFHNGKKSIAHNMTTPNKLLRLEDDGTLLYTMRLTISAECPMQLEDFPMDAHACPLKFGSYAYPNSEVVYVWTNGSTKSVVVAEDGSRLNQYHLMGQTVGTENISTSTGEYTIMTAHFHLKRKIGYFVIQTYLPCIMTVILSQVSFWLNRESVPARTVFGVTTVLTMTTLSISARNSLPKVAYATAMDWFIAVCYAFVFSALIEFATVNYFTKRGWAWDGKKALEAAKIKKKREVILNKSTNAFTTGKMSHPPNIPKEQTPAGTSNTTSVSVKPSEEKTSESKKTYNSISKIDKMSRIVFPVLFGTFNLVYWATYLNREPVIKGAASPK
# T4 sequence (P28472 26-473): as the sequence (P28472 26-473) above
# T4 sequence (P18507 40-475): as the sequence (P18507 40-475) above
# Excerpt: as §5, §6, §7
# (§8) THDOC: The following standard protocol was used for the different receptor subtypes: • α1β2γ2L: 20 s preincubation of 30-1000 nM THDOC 40 ms application of 30 μM GABA±steroids. • α3β2γ2: 20 s preincubation of 1-1000 nM THDOC followed by 1 s application of 100 μM GABA±steroids. • α5β3γ2L: 20 s preincubation of 30-1000 nM THDOC followed by 6 s application of 0.3 μM GABA±steroids.
# [6] = target: α3β2γ2 GABAA receptor subtype (Homo sapiens, UniProt P28472+P34903); test: Patch-clamp (Dynaflow), THDOC on GABA-mediated current at α3β2γ2 receptor subtype; format: cell-based; conditions: 1-1000 nM THDOC 20 s preincubation, 100 μM GABA 1 s, read-out: Emax for effect on GABA mediated current response
# α3β2γ2 GABAA receptor subtype, sequence (P34903 29-492): as the sequence (P34903 29-492) above
# α3β2γ2 GABAA receptor subtype, sequence (P28472 26-473): as the sequence (P28472 26-473) above
# α3β2γ2 GABAA receptor subtype, sequence (P18507 40-475 partner): as the sequence (P18507 40-475) above
# Procedure: as §6, §8
# [7] = 1 mg/kg s.c. + 5 mg/kg progesterone + 10 μg/kg 17β-estradiol
# [8] = 5 mg/kg s.c. + 5 mg/kg progesterone + 10 μg/kg 17β-estradiol
structure (smiles),measurement,setting,value
C#C[C@]1(O)CC[C@@]2(C)[C@@H](CC[C@@H]3[C@@H]2CC[C@]2(C)C(=O)CC[C@@H]32)C1 [3α-ethynyl-3β-hydroxy-5α-androstan-17-one],"Effect on 100 μM GABA-mediated current response, Mean ± SEM %","[1]; 0.003 μM compound + 100 μM GABA, α3β3γ2L",+2.5 ± 2.9%
same,"Own effect, Baseline shift","[1]; 0.003 μM compound, absence of GABA, α3β3γ2L",−1.0 ± 0.4 pA
same,"Effect on 100 μM GABA-mediated current response, Mean ± SEM %","[1]; 0.01 μM compound + 100 μM GABA, α3β3γ2L",−3.0 ± 2.3%
same,"Own effect, Baseline shift","[1]; 0.01 μM compound, absence of GABA, α3β3γ2L",−0.7 ± 0.7 pA
same,"Effect on 100 μM GABA-mediated current response, Mean ± SEM %","[1]; 0.03 μM compound + 100 μM GABA, α3β3γ2L",−2.0 ± 1.0%
same,"Own effect, Baseline shift","[1]; 0.03 μM compound, absence of GABA, α3β3γ2L",−0.8 ± 1.2 pA
same,"Effect on 100 μM GABA-mediated current response, Mean ± SEM %","[1]; 0.1 μM compound + 100 μM GABA, α3β3γ2L",−4.0 ± 3.0%
same,"Own effect, Baseline shift","[1]; 0.1 μM compound, absence of GABA, α3β3γ2L",−1.0 ± 0.8 pA
same,"Effect on 100 μM GABA-mediated current response, Mean ± SEM %","[1]; 0.3 μM compound + 100 μM GABA, α3β3γ2L",−10% and −10 ± 2.3%
same,"Own effect, Baseline shift","[1]; 0.3 μM compound, absence of GABA, α3β3γ2L",+0.9 ± 0.5 pA
same,"Own effect, Baseline shift","[1]; 1 μM compound, absence of GABA, α3β3γ2L",−1.2 ± 0.5 pA
same,"Effect on 100 μM GABA-mediated current response, Mean ± SEM %","[1]; 3 μM compound + 100 μM GABA, α3β3γ2L",−74 ± 0.9%
same,"Own effect, Baseline shift","[1]; 3 μM compound, absence of GABA, α3β3γ2L",−0.4 ± 0.4 pA
same,"Effect on 100 μM GABA-mediated current response, Mean ± SEM %","[1]; 10 μM compound + 100 μM GABA, α3β3γ2L",−76 ± 1.9%
same,"Own effect, Baseline shift","[1]; 10 μM compound, absence of GABA, α3β3γ2L",+1.1 + 2.4 pA
same,Activation of the α3β3γ2L GABAA receptor in absence of GABA,"[1]; 0.003-10 μM, absence of GABA",do not activate
same,Imax on 100 μM GABA-mediated current response,"[1]; 0.003-10 μM, best fit curve, α3β3γ2L",−78%
same,IC50,"[1]; 0.003-10 μM, best fit curve, α3β3γ2L, read-out: IC50 on 100 μM GABA-mediated current response",800 nM
same,Antagonism of 100 nM THDOC-enhancement at α1β2γ2,[2]; 1 μM compound + THDOC + GABA,no significant agonistic or antagonistic effect; also recorded: No effect
same,Weight difference compared to vehicle (Mean±SE),[3]; [7],-33 ± 4.4 g
same,Weight difference versus E+P control rats (Mean±SE),[3]; [7],-23.9 ± 4.4 g
same,Weight difference compared to vehicle (Mean±SE),[3]; [8],-29.6 ± 5.2 g
same,Weight difference versus E+P control rats (Mean±SE),[3]; [8],-20.4 ± 5.2 g
same,Difference in weight after 10 days of treatment compared to vehicle,"[3]; s.c., 10 days of treatment",over 20%
same,Effect as a GAMSA or GAMS,GABAA receptor,no effect
"C[C@]12CC[C@@H](O)C[C@@H]1CC[C@@H]1[C@@H]2CC[C@]2(C)[C@@H](C(=O)CO)CC[C@@H]12 [THDOC, 3α, 21-dihydroxy-5α-pregnan-20-one]",Emax,"[2]; HEK293, α1β2γ2L, 30-1000 nM THDOC 20 s preincubation, 30 μM GABA 40 ms, read-out: Emax for effect on GABA mediated current response",115%
same,Effect on GABA-mediated current at α1β2γ2L (in words),[2]; agonist effect,significantly enhances
same,EC50,"[2]; α1β2γ2L, 30-1000 nM THDOC 20 s preincubation, 30 μM GABA 40 ms, read-out: EC50 for effect on GABA mediated current response",70 nM
same,Effect on GABA-mediated current at α4β3δ (in words),[4],significantly enhances
same,Effect on GABA-mediated current at α5β3γ2L (in words),[5]; agonist effect,significantly enhances
same,EC50,"[5]; α5β3γ2L, 30-1000 nM THDOC 20 s preincubation, 0.3 μM GABA 6 s, read-out: EC50 for effect on GABA mediated current response",68 nM
same,Emax,"[5]; α5β3γ2L, 30-1000 nM THDOC 20 s preincubation, 0.3 μM GABA 6 s, read-out: Emax for effect on GABA mediated current response",131%
same,Emax,[6],80%
